# Assay results from patent US20160002247A1, “8-SUBSTITUTED IMIDAZOPYRIMIDINONE DERIVATIVE HAVING AUTOTAXIN INHIBITORY ACTIVITY” (THE UNIVERSITY OF TOKYO, priority 2013, published 2016).
# Target: T1, Human autotaxin enzyme (Homo sapiens, UniProt Q13822)
# T1 construct: purchased R&D System
# Experiment: Evaluation of autotaxin inhibitor, Method C (Test Example 3): 18:0 Lyso PC, choline assay, Resorufin fluorescence
# Assay type: biochemical
# Conditions: Assay Method C (Test Example 3), human autotaxin, 18:0 Lyso PC substrate; read-out: Inhibitory Activity (autotaxin enzyme inhibitory activity, IC50 class)
# How it was run: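 Choline-coupled fluorescence readout (20 min, resorufin at 531/598 nm) followed a 2 h room-temperature reaction of human autotaxin with 18:0 Lyso PC substrate (added as 200 μM solution) in pH 7.5 Tris buffer containing MgCl2 and Triton X-100. Percent inhibition scaled to no-compound (0%) and no-enzyme (100%) wells and plotted versus concentration.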
row,SMILES,IC50
1,CCCCCn1c(N2CCNC[C@@H]2C(=O)O)cc(=O)n2cc(-c3ccc(Cl)cc3)nc12 [Compound 659],> 1000 nM
2,CCCCCn1c(-c2cccc(NS(C)(=O)=O)c2)cc(=O)n2cc(-c3ccc(Cl)cc3)nc12 [Compound 441],100 to 1000 nM
3,CCCCCn1c(N2CCCC(c3ccccc3)C2)cc(=O)n2cc(-c3ccc(Cl)cc3)nc12 (centres unmarked) [Compound 305],> 1000 nM
4,CCCCCn1c(-c2ccc(F)nc2)cc(=O)n2cc(-c3ccc(Cl)cc3)nc12 [Compound 457],10 to 100 nM
5,CCCCCn1c(N2CCN(S(=O)(=O)N(C)C)CC2)cc(=O)n2cc(-c3ccc(Cl)cc3)nc12 [Compound 297],100 to 1000 nM
6,CCCCCn1c(-c2cccc(S(=O)(=O)N3CCOCC3)c2)cc(=O)n2cc(-c3ccc(Cl)cc3)nc12 [Compound 452],10 to 100 nM
7,CCCCCn1c(N2CCC[C@H]2C(=O)NCCCCCCN(C)C)cc(=O)n2cc(-c3ccc(Cl)cc3)nc12 [Compound 651],10 to 100 nM
8,CCCCCn1c(N2CCC[C@H]2C(=O)NCC(C)C(=O)O)cc(=O)n2cc(-c3ccc(Cl)cc3)nc12 (some centres unmarked) [Compound 355],< 10 nM
9,CCCCCn1c(N2CCC[C@H]2C(=O)N[C@@H]2CCNC2=O)cc(=O)n2cc(-c3ccc(Cl)cc3)nc12 [Compound 702],10 to 100 nM
10,"CCCCCn1c(-c2ccc(C(=O)NCCNC(=O)OCc3ccccc3)cc2)cc(=O)n2cc(-c3ccc(Cl)cc3)nc12 [Compound 363, benzyl 2-(4-(2-(4-chlorophenyl)-5-oxo-8-pentyl-5,8-dihydroimidazo[1,2-a]pyrimidin-7-yl)benzamide)ethylcarbamate]",10 to 100 nM
11,CCCCCn1c(N2C[C@@H](O)C[C@H]2C(=O)NC(C)(C)CC(=O)OCC)cc(=O)n2cc(-c3ccc(Cl)cc3)nc12 [Compound 598],10 to 100 nM
12,CCCCCn1c(N2CC3CN(C(=O)OC(C)(C)C)CC3C2)cc(=O)n2cc(-c3ccc(Cl)cc3)nc12 (centres unmarked) [Compound 314],> 1000 nM
13,CCCCCn1c(/N=C(\C)OCCC)cc(=O)n2cc(-c3ccc(Cl)cc3)nc12 [Compound 561],> 1000 nM
14,CCCCCn1c(N2CCC[C@H]2C(=O)NCC2CCN(C)C2)cc(=O)n2cc(-c3ccc(Cl)cc3)nc12 (some centres unmarked) [Compound 650],> 1000 nM
15,CCCCCn1c(NCCCCC(=O)O)cc(=O)n2cc(-c3ccc(Cl)cc3)nc12 [Compound 611],10 to 100 nM
16,C#CCNC(=O)c1ccc(-c2cc(=O)n3cc(-c4ccc(Cl)cc4)nc3n2CCCCC)cc1 [Compound 484],10 to 100 nM
17,CCCCCn1c(OCC2(C)COC2)cc(=O)n2cc(-c3ccc(Cl)cc3)nc12 [Compound 719],100 to 1000 nM
18,CCCCCn1c(N2CCC[C@H]2C(=O)N[C@H](C(=O)O)c2ccccc2)cc(=O)n2cc(-c3ccc(Cl)cc3)nc12 [Compound 732],< 10 nM
19,CCCCCn1c(-c2ccc(C(N)=O)cc2)cc(=O)n2cc(-c3ccc(Cl)cc3)nc12 [Compound 375],10 to 100 nM
20,CCCCCn1c(N2CCC[C@H]2C(=O)NCCCCN(C)C)cc(=O)n2cc(-c3ccc(Cl)cc3)nc12 [Compound 656],100 to 1000 nM
21,CCCCCn1c(N2CCC(C(=O)NC)CC2)cc(=O)n2cc(-c3ccc(Cl)cc3)nc12 [Compound 295],100 to 1000 nM

row,SMILES,IC50
1,CCCCCn1c(N2CCC[C@@H](C(=O)NCC(=O)O)C2)cc(=O)n2cc(-c3ccc(Cl)cc3)nc12 [Compound 636],10 to 100 nM
2,CCCCCn1c(N2CCC[C@H]2C(=O)N(CC(=O)O)Cc2ccccc2)cc(=O)n2cc(-c3ccc(Cl)cc3)nc12 [Compound 736],< 10 nM
3,CCCCCn1c(-c2cnc(OC)c(Cl)c2)cc(=O)n2cc(-c3ccc(Cl)cc3)nc12 [Compound 458],100 to 1000 nM
4,CCCCCn1c(O[C@H]2CC[C@H](C(C)(C)C(=O)O)CC2)cc(=O)n2cc(-c3ccc(Cl)cc3)nc12 [Compound 556],10 to 100 nM
5,CCCCCn1c(-c2ccc(C(=O)N3CCOCC3)cc2)cc(=O)n2cc(-c3ccc(Cl)cc3)nc12 [Compound 473],10 to 100 nM
6,CCCCCn1c(-c2ccc(C(=O)Nc3ccncc3)cc2)cc(=O)n2cc(-c3ccc(Cl)cc3)nc12 [Compound 466],10 to 100 nM
7,CCCCCn1c(N2C[C@@H](F)C[C@H]2C(=O)NCCC(=O)OCC)cc(=O)n2cc(-c3ccc(Cl)cc3)nc12 [Compound 592],10 to 100 nM
8,CCCCCn1c(N2CCN(C(=O)OC(C)(C)C)C[C@H]2C(=O)NCC(=O)O)cc(=O)n2cc(-c3ccc(Cl)cc3)nc12 [Compound 632],10 to 100 nM
9,CCCCCn1c(-c2ccc(C(=O)NCCCOC)cc2)cc(=O)n2cc(-c3ccc(Cl)cc3)nc12 [Compound 479],10 to 100 nM
10,CCCCCn1c(N2CC[C@@H](C(=O)O)C2)cc(=O)n2cc(-c3ccc(Cl)cc3)nc12 [Compound 669],10 to 100 nM
11,CCCCCn1c(N2CCC[C@H]2C(=O)N[C@H](C(=O)O)C(C)(C)C)cc(=O)n2cc(-c3ccc(Cl)cc3)nc12 [Compound 722],< 10 nM
12,CCCCCn1c(N2CCN(C(=O)OC(C)(C)C)CC2)cc(=O)n2cc(-c3ccc(Cl)cc3)nc12 [Compound 682],100 to 1000 nM
13,CCCCCn1c(C)c(CC(=O)OCC)c(=O)n2cc(-c3ccc(Cl)cc3)nc12 [Compound 202],10 to 100 nM
14,CCCCCn1c(-c2ccc(S(=O)(=O)N3CCOCC3)cc2)cc(=O)n2cc(-c3ccc(Cl)cc3)nc12 [Compound 430],10 to 100 nM
15,CCCCCn1c(-c2ccc(C(=O)NCCC)cc2)cc(=O)n2cc(-c3ccc(Cl)cc3)nc12 [Compound 478],10 to 100 nM
16,CCCCCn1c(-c2ccc(C(=O)NCCO)cc2)cc(=O)n2cc(-c3ccc(Cl)cc3)nc12 [Compound 390],10 to 100 nM
17,CCCCCn1c(N(C)CC(=O)O)cc(=O)n2cc(-c3ccc(Cl)cc3)nc12 [Compound 602],100 to 1000 nM
18,CCCCCn1c(N2CCC[C@@]2(C)C(=O)O)cc(=O)n2cc(-c3ccc(Cl)cc3)nc12 [Compound 606],> 1000 nM
19,CCCCCn1c(N2C[C@@H](F)C[C@H]2C(=O)NCCC(=O)O)cc(=O)n2cc(-c3ccc(Cl)cc3)nc12 [Compound 580],< 10 nM
20,CCCCCn1c(-c2cnc(OC)nc2)cc(=O)n2cc(-c3ccc(Cl)cc3)nc12 [Compound 373],10 to 100 nM
21,CCCCCn1c(N2C[C@@H](F)C[C@H]2C(=O)NC(C)(C)CC(=O)OCC)cc(=O)n2cc(-c3ccc(Cl)cc3)nc12 [Compound 596],10 to 100 nM

row,SMILES,IC50
1,CCCCCn1c(OC2CCN(CC(=O)N3CCOCC3)CC2)cc(=O)n2cc(-c3ccc(Cl)cc3)nc12 [Compound 548],100 to 1000 nM
2,CCCCCn1c(N2CCC[C@H]2CC(=O)O)cc(=O)n2cc(-c3ccc(Cl)cc3)nc12 [Compound 599],10 to 100 nM
3,CCCCCn1c(-c2ccc(C(=O)NC(C)(C)CO)cc2)cc(=O)n2cc(-c3ccc(Cl)cc3)nc12 [Compound 477],10 to 100 nM
4,CCCCCn1c(N2CCC[C@H]2C(=O)NCCn2ccnc2)cc(=O)n2cc(-c3ccc(Cl)cc3)nc12 [Compound 342],100 to 1000 nM
5,CN(C)CCNC(=O)c1ccc(-c2cc(=O)n3cc(-c4ccc(C(F)(F)F)cc4)nc3n2CCCCC#N)cc1 [Compound 377],10 to 100 nM
6,CCCCCn1c(N2CCC[C@H]2C(=O)N2CCCC(C(=O)OCC)C2)cc(=O)n2cc(-c3ccc(Cl)cc3)nc12 (some centres unmarked) [Compound 696],100 to 1000 nM
7,CCCCCn1c(N2CCC[C@H]2C(=O)N2CCC[C@H](C(=O)OCC)C2)cc(=O)n2cc(-c3ccc(Cl)cc3)nc12 [Compound 691],100 to 1000 nM
8,CCCCCn1c(N2CCCC2c2ccccc2)cc(=O)n2cc(-c3ccc(Cl)cc3)nc12 (centres unmarked) [Compound 306],10 to 100 nM
9,CCCCCn1c(-c2ccc(C(=O)NCCCn3cc(-c4cccnc4)cn3)cc2)cc(=O)n2cc(-c3ccc(Cl)cc3)nc12 [Compound 520],10 to 100 nM
10,CCCCCn1c(OC2CN(CCC(=O)O)C2)cc(=O)n2cc(-c3ccc(Cl)cc3)nc12 [Compound 570],< 10 nM
11,CCCCCn1c(O[C@H]2CCN(CCC(=O)O)C2)cc(=O)n2cc(-c3ccc(Cl)cc3)nc12 [Compound 576],10 to 100 nM
12,CCCCCn1c(-c2ccccc2F)cc(=O)n2cc(-c3ccc(Cl)cc3)nc12 [Compound 443],100 to 1000 nM
13,Cc1cc(=O)n2cc(-c3ccc(Cl)cc3)nc2n1Cc1c(F)cccc1F [Compound 119],100 to 1000 nM
14,CCCCCn1c(NCCCC(=O)O)cc(=O)n2cc(-c3ccc(Cl)cc3)nc12 [Compound 607],10 to 100 nM
15,CCCCCn1c(N2CCC[C@H]2C(=O)N[C@H]2CCNC2=O)cc(=O)n2cc(-c3ccc(Cl)cc3)nc12 [Compound 708],10 to 100 nM
16,CCCCCn1c(N2CCCC(C3CCCCC3)C2)cc(=O)n2cc(-c3ccc(Cl)cc3)nc12 (centres unmarked) [Compound 307],> 1000 nM
17,CCCCCn1c(C)cc(=O)n2cc(C3CCC(C(F)(F)F)CC3)nc12 (centres unmarked) [Compound 137],100 to 1000 nM
18,CCCCCn1c(-c2ccc(C(=O)NCc3ccccn3)cc2)cc(=O)n2cc(-c3ccc(Cl)cc3)nc12 [Compound 507],10 to 100 nM
19,CCCCCn1c(N2CCC[C@H]2C(=O)N[C@H](CCCC)C(=O)O)cc(=O)n2cc(-c3ccc(Cl)cc3)nc12 [Compound 738],< 10 nM

# Same assay, conditions: Assay Method C, human autotaxin, 18:0 Lyso PC substrate; read-out: Inhibitory Activity
row,SMILES,IC50
1,O=C(Cc1cn(CCCC(F)(F)F)c2nc(-c3ccc(Cl)cc3)cn2c1=O)N1CCC(O)CC1 [Compound 838],> 1000 nM
2,O=C(Cc1cn(CCCC(F)(F)F)c2nc(-c3ccc(Cl)cc3)cn2c1=O)NC1COC1 [Compound 846],> 1000 nM
3,N#CCCCCn1cc(Cc2cccc(C(=O)O)c2)c(=O)n2cc(-c3ccc(Cl)cc3)nc12 [Compound 824],< 10 nM
4,CCCCCn1c(N2CCC[C@H]2C(=O)NC[C@H](O)C(F)(F)F)cc(=O)n2cc(-c3ccc(Cl)cc3)nc12 [Compound 792],100 to 1000 nM
5,CCCCCn1c(N2CCC[C@H]2C(=O)NCC(O)C(F)(F)F)cc(=O)n2cc(-c3ccc(Cl)cc3)nc12 (some centres unmarked) [Compound 785],100 to 1000 nM
6,CCCCC(C(C)=O)n1cc(Cc2cccc(C(=O)O)c2)c(=O)n2cc(-c3ccc(Cl)cc3)nc12 (centres unmarked) [Compound 825],> 1000 nM
7,N#CCN(CC#N)C(=O)Cc1cn(CCCC(F)(F)F)c2nc(-c3ccc(Cl)cc3)cn2c1=O [Compound 839],100 to 1000 nM
